# Source: patent US11253497B2, “Use of derivatives of polyunsaturated fatty acids as medicaments” (Lipopharma Therapeutics, S.L., priority 2009, dated 2022)
# Key:
# [1] = tested on: lung cancer cells A549; assay: Growth of lung cancer cells A549 (IC50); type: cell-based, human; settings: 72 hours of incubation
# Procedure, shortened: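 Cell counts taken with compound, mean of three independent experiments. Applies to A549 (RPMI 1640, 10% FBS, 37 °C, 5% CO2).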
# [2] = tested on: apolipoprotein AI (apoA-I); assay: Levels of apoA-I in SHR rats (RT-PCR); type: in vivo, rat; settings: 200 mg/kg day p.o., 30 days, before treatment 100%
# Experimental: (§1) In a separate experimental series, it was studied the effect of D-PUFA molecules of the present invention on blood pressure of SHR rats. In these animals both, blood pressure and levels of apolipoprotein AI (apoA-I) were measured. For these experiments Spontaneously Hypertensive Rats (SHR) were treated for 30 days with vehicle (water control) or compounds of the invention (200 mg/kg day, p.o.). At the end of this period, the animals' blood pressure and serum levels of apoA-I were measured. […] For these experiments, non-invasive methods for determining blood pressure (cuff-tail method) and gene expression for apoA-I (RT-PCR) described in the literature (Terés et al., 2008) were used. The usefulness of the molecules of the present invention for the treatment of cardiovascular diseases is reinforced by its capacity for reducing the levels of serum cholesterol and triglycerides (see below).
# (§2) The average values of SHR before treatment were 214 mmHg and 100% respectively.
# [3] = tested on: TNF-α; assay: Production of TNF-α in serum of LPS-injected C57BL6/J mice; type: in vivo; settings: LPS 20 μg i.p. (100%), 200 mg/kg p.o.
# Description: (§3) Cyclooxygenase (COX) is an enzyme that can bind to membranes, taking certain lipids from there and catalyze its conversion into molecules that can have inflammatory activity. The binding of this enzyme to membrane lipids is due in part to the membrane lipid structure. The increased activity of COX 1 and 2 isoforms has been associated with the etiopathology of a number of inflammatory diseases by […] arachidonic acid metabolism to produce pro-inflammatory lipid mediators. The D-PUFA compounds of the present invention produced a series of cellular signals that alter the metabolism of arachidonic acid and, as a result, they inhibit the activity and expression of COX in monocytes in culture (Table 14 and FIG. 5A). […] For this purpose, C57BL6/J mice were treated with the various derivatives (200 mg/kg, p.o.,) after inducing an inflammatory reaction in them by intraperitoneal injection of 20 μg of bacterial lipopolysaccharide (LPS).
# [4] = tested on: Spontaneously Hypertensive Rats (SHR); assay: Blood pressure of SHR rats (cuff-tail method); type: in vivo, rat; settings: 200 mg/kg day p.o., 30 days, before treatment 214 mmHg
# Experimental: as §1, §2
# [5] = tested on: brain cancer cell (glioma) U118; assay: Brain cancer (glioma) U118 cell growth; type: cell-based; settings: 72 hours of incubation
# Procedure, shortened: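 Cell counts taken with compound, mean of three independent experiments. Applies to U118.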
# [6] = tested on: breast cancer cells MDA-MB-231; assay: Growth of breast cancer cells MDA-MB-231; type: cell-based; settings: 72 hours of incubation
# Procedure, shortened: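 Cell counts taken with compound, mean of three independent experiments. Applies to MDA-MB-231.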
# [7] = tested on: P19 cells; assay: NMDA-induced neuronal death in P19 cells; type: cell-based; settings: NMDA alone 100% death, control without NMDA 0%; negative values = proliferation
# [8] = tested on: α-synuclein; assay: Expression of α-synuclein in neuronal cultures (cells P19); type: cell-based; settings: untreated cells 100%
# [9] = Serum cholesterol, triglycerides and glucose in SHR rats (colorimetric); type: in vivo, rat; settings: 200 mg/kg daily p.o., 28 days, untreated rats 100%
# Experimental: In a separate experimental series, SHR rats were treated with various compounds of the present invention (200 mg/kg daily, 28 days, p.o.) and the levels of cholesterol, triglycerides and glucose in serum were measured by colorimetric methods. It was observed that these compounds induce significant (and in many cases marked) reductions in the levels of these metabolites (Table 16).
# Values are expressed as percent, and in untreated (control) rats values were always considered as 100%.
# [10] = tested on: COX-2; assay: Expression of COX-2 in LPS-stimulated monocytes in culture; type: cell-based, human; settings: positive control with LPS 100%
# Description: FIG. 5A also presents a drawing showing the COX-2/COX-1 relationship as % of control (Y axis) for the following compounds (X-axis): OOA (2-hydroxy-oleic acid), OLA (182A1), OALA (183A1), OGLA (183A2), OARA (204A1), OEPA (205A1), ODHA (226A1). […] The reduction of this factor is directly related to the anti-inflammatory medication. The compounds are the same as in the left pane.
# as §3
# Inhibition of COX-2 expression in monocytes. Percentages of inhibition (compared to the positive control in the presence of LPS, 100%) of COX-2 protein levels (expression) by the various fatty acid derivatives.
Compound,IC50 [1],Levels of apoA-I [2],Production of TNF-α in serum [3],Blood pressure [4],IC50 [5],IC50 [6],Neuronal death (P19 cells) after treatment with NMDA [7],Expression of α-synuclein [8],Cholesterol in serum (top number) [9],Glucose in serum (bottom number) [9],Triglycerides in serum (central number) [9],"COX-2 protein levels (expression), percentages of inhibition compared to positive control [10]"
CCCCCC=CCC=CCCCCCCC(O)C(=O)OP(=O)(OCC)OCC (stereo not drawn) [182F1],354 µM,192%,86%,198 mm Hg,236 µM,311 µM,−45%,71%,92%,89%,88%,56%
CCCCCC=CCC=CCCCCCCC(OC=O)C(=O)OCC (stereo not drawn) [182V1],340 µM,166%,81%,207 mm Hg,231 µM,442 µM,−17%,83%,94%,93%,93%,81%
CCCCCC=CCC=CCC=CCCCC(C)C(=O)[O-].[Na+] (stereo not drawn) [183L2],283 µM,268%,91%,194 mm Hg,460 µM,173 µM,−29%,73%,83%,92%,79%,48%
CCC=CCC=CCC=CCC=CCC=CCCC(O)C(=O)OP(=O)(OCC)OCC (stereo not drawn) [205F1],338 µM,319%,80%,195 mm Hg,498 µM,275 µM,−44%,57%,71%,82%,83%,47%
CCC=CCC=CCC=CCCCCCCC(OC=O)C(=O)OCC (stereo not drawn) [183V1],320 µM,152%,84%,199 mm Hg,274 µM,326 µM,−9%,87%,75%,79%,70%,79%
CCC=CCC=CCC=CCCCCCCC(C)C(=O)[O-].[Na+] (stereo not drawn) [183L1],285 µM,125%,86%,205 mm Hg,231 µM,306 µM,−21%,76%,82%,85%,77%,65%
CCCCCC=CCC=CCC=CCCCC(O)C(=O)OP(=O)(OCC)OCC (stereo not drawn) [183F2],259 µM,279%,86%,191 mm Hg,401 µM,181 µM,−36%,52%,84%,85%,87%,36%
CCCCCC=CCC=CCC=CCC=CCCC(OC=O)C(=O)OCC (stereo not drawn) [204V1],326 µM,161%,42%,198 mm Hg,345 µM,352 µM,−11%,82%,84%,87%,81%,43%
CCC=CCC=CCC=CCC=CCC=CCCC(OC=O)C(=O)OCC (stereo not drawn) [205V1],325 µM,315%,84%,191 mm Hg,510 µM,298 µM,−27%,81%,85%,84%,79%,76%
CCCCCC=CCC=CCC=CCC=CCCC(O)C(=O)OP(=O)(OCC)OCC (stereo not drawn) [204F1],392 µM,163%,46%,199 mm Hg,275 µM,326 µM,−46%,52%,76%,84%,81%,41%
